From the NIST ThermoML archive (doi:10.1016/j.jct.2006.07.014)
Numbers after ± are expanded uncertainties.

Legend:
[1] = Liquid; for mass density: 298.15 K, 101.33 kPa, Vibrating tube method
[2] = refractive index (Na D-line) (dimensionless); conditions: 298.15 K; 101.33 kPa; Liquid; Standard Abbe refractometry

SMILES | mass density [1] [kg/m3] | vapor or sublimation pressure ([1]; 379.45 K) [kPa] | refractive index [2] | vapor or sublimation pressure ([1]; 353.85 K) [kPa] | vapor or sublimation pressure ([1]; 352.25 K) [kPa] | vapor or sublimation pressure ([1]; 389.15 K) [kPa] | vapor or sublimation pressure ([1]; 371.05 K) [kPa]
CC(C)CO [2-methyl-1-propanol] | 797.8 ± 4.6 | 94.83 ± 5 | 1.3939 ± 0.0012 |  |  |  | 
CC(C)(C)O [2-methylpropan-2-ol] | 781.2 ± 4.4 |  | 1.3852 ± 0.0012 | 94.83 ± 5 |  |  | 
CC#N [acetonitrile] | 776.5 ± 4.3 |  | 1.3416 ± 0.0012 |  | 94.83 ± 5 |  | 

The next lines start with the values.

mass density [1] [kg/m3] | vapor or sublimation pressure ([1]; 379.45 K) [kPa] | refractive index [2] | vapor or sublimation pressure ([1]; 353.85 K) [kPa] | vapor or sublimation pressure ([1]; 352.25 K) [kPa] | vapor or sublimation pressure ([1]; 389.15 K) [kPa] | vapor or sublimation pressure ([1]; 371.05 K) [kPa] | SMILES
805.8 ± 4.6 |  | 1.3974 ± 0.0012 |  |  | 94.83 ± 5 |  | CCCCO [butan-1-ol]
802.4 ± 4.6 |  | 1.3953 ± 0.0012 |  |  |  | 94.83 ± 5 | CCC(C)O (stereo not given) [butan-2-ol]
